Structures can show the parent of a compound that is named as a salt.
Columns and labels:
[1] = system: Caenorhabditis elegans N2; experiment: mean nematode size ln(EXT) after 48 h, plate-adjusted (DMSO control set to 6) (ln(EXT), control-adjusted); higher = larger nematodes / less growth inhibition; conditions: exposure time 48 h
Method in brief: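 In K-medium with killed OP50, 1% DMSO and 0.5–200 µM chemical, synchronised N2 L1 larvae of C. elegans (50 per well) grew for 48 h at 20°C. Extinction was read for every worm on the Biosort, with debris removed by a growth model. Natural-log values averaged per well gave mean size, which was corrected per plate by subtracting the vehicle control mean and adding 6.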

[2] = system: Caenorhabditis elegans N2; experiment: lowest effective concentration for larval growth inhibition (size below effect threshold); higher = less potent; conditions: exposure time 48 h
Method in brief: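 Chemical exposure ran for 48 h at 20°C: 50 C. elegans N2 L1 larvae per 96-well in K-medium with killed bacteria, 1% DMSO and 0.5, 1, 5, 10, 50, 100 or 200 µM chemical. Extinction of each worm, read as size on the Biosort, was log-transformed and averaged by well. The lowest effective concentration is the first dose whose plate-adjusted mean size is below a fixed value and remains so at all higher doses; the value is 5.665.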

| Compound | mean nematode size ln(EXT) (ln) ([1]; 0.5 µM) | mean nematode size ln(EXT) (ln) ([1]; 1 µM) | mean nematode size ln(EXT) (ln) ([1]; 5 µM) | mean nematode size ln(EXT) (ln) ([1]; 10 µM) | mean nematode size ln(EXT) (ln) ([1]; 50 µM) | mean nematode size ln(EXT) (ln) ([1]; 100 µM) | mean nematode size ln(EXT) (ln) ([1]; 200 µM) | lowest effective concentration [2] |
| --- | --- | --- | --- | --- | --- | --- | --- | --- |
| CCCCC(CC)COC(=O)CCCCC(=O)OCc1ccccc1 (configuration not stated) [Benzyloctyl adipate (BOA)] | 5.99 | 5.97 | 6.03 | 6.02 | 5.92 | 5.77 | 5.89 | > 200 µM |
| CC1=NNC(=O)N(/N=C/c2cccnc2)C1 [Pymetrozine] | 5.74 | 5.77 | 5.8 | 5.78 | 5.77 | 5.89 | 5.76 | > 200 µM |
| CCCCC(CC)COC(=O)CCCCCCCC(=O)OCC(CC)CCCC (configuration not stated) [Azelaic acid di(2-ethylhexyl) ester] | 5.73 | 5.62 | 5.69 | 5.67 | 5.23 | 5.44 | 5.67 | > 200 µM |
| C=CCc1ccc(OC)c(OC)c1 [Methyleugenol] | 6 | 5.97 | 6.02 | 5.98 | 5.99 | 5.99 | 5.7 | > 200 µM |
| O=C(O)c1cccc(Oc2ccccc2)c1 [3-Phenoxybenzoic acid] | 5.87 | 5.85 | 5.89 | 5.87 | 5.83 | 5.83 | 5.91 | > 200 µM |
| OCCOCCOCCO [Triethylene glycol] | 5.84 | 5.84 | 5.95 | 5.98 | 5.88 | 5.87 | 5.84 | > 200 µM |
| O=C(O)c1nc(Cl)ccc1Cl [Clopyralid-olamine] | 5.87 | 5.89 | 5.95 | 5.89 | 5.88 | 5.98 | 5.95 | > 200 µM |
| CCCOC(=O)NCCCN(C)C [Propamocarb hydrochloride] | 5.84 | 5.93 | 5.9 | 5.93 | 6.01 | 5.91 | 5.89 | > 200 µM |
| C=CC(=O)NCNC(=O)C=C [N,N'-Methylenebis(acrylamide)] | 6.06 | 6.06 | 6.06 | 6.01 | 6 | 6.05 | 5.83 | > 200 µM |
| O=c1c(O)c(-c2ccc(O)c(O)c2)oc2cc(O)cc(O)c12 [2-(3,4-Dihydroxy-phenyl)-3,5,7-trihydroxy-chromen-4-one] | 5.8 | 5.86 | 5.86 | 5.79 | 4.75 | 5.87 | 5.75 | > 200 µM |
| CCCC(=O)O [Butanoic acid] | 5.86 | 5.86 | 5.86 | 5.86 | 5.94 | 6 | 5.71 | > 200 µM |
| COc1cc(-c2ccc(N)c(OC)c2)ccc1N [3,3'-Dimethoxybenzidine dihydrochloride] | 5.89 | 5.91 | 5.9 | 5.65 | 5.72 | 5.41 | 6.4 | > 200 µM |
| CCNc1nc(N)nc(Cl)n1 [6-Deisopropylatrazine] | 6.12 | 6.17 | 6.08 | 6.05 | 5.95 | 6 | 5.94 | > 200 µM |
| O=P(OCCCl)(OCCCl)OCCCl [Tris(2-chloroethyl) phosphate] | 5.87 | 5.82 | 5.89 | 5.86 | 5.86 | 5.87 | 5.77 | > 200 µM |

— the supplement of paper PMC4858399
